Earlier results as cited in patent US20040063806A1, “Antimicrobial polyalphaolefin composition” (priority 2000, published 2004).
Read-outs that look alike come from different tables or passages of the source.

How the values were obtained:
Actinomyces israelii = Actinomyces israelii NCTC 8047, medium NA
Actinomyces naeslundii = details: origin A, medium NA
Clostridium botulinum = Clostridium botulinum NCTC 3805, medium EA
Clostridium difficile = Clostridium difficile ATCC 9684, medium BHI-A
[1] = tested on: Corynebacterium diphtherias; details: Corynebacterium diphtherias NCTC 3984, medium BHI-A
[2] = tested on: Lactobacillus delbrueckii; details: Lactobacillus delbrueckii ATCC 7830, medium MACA
Lactobacillus rhamnosus = Lactobacillus rhamnosus NCTC 7469, medium MACA
Mycobacterium phlei = details: origin A, medium BHI-A
Mycobacterium smegmatis = Mycobacterium smegmatis NCTC 8152, medium BHI-A
Nocardia asteroides = Nocardia asteroides NCTC 6761, medium BHI-A
Sarcina lutee = Sarcina lutee NCTC 196, medium BHI-A
Streptococcus coelicolor = details: origin A, medium BHI-A
Aerobacter arogenes = Aerobacter arogenes CITM 413, medium NA
Alcaligenes faecalis = details: origin A, medium NA
Bacteroides fragilis = Bacteroides fragilis ATCC 23745, medium M-H
Brucella abortus = Brucella abortus NCTC 8226, medium BR.A.A.
Brucella intermedia = details: origin A, medium BR.A.A.
Enterobacter cloacae = Enterobacter cloacae ATCC 13047, medium M-H
Klebsiella edwardsii = Klebsiella edwardsii NCTC 7242, medium NA
Loefferella mallei = Loefferella mallei NCTC 9674, medium NA
Moraxella glucidolytica = details: origin A, medium NA
[3] = tested on: Pasteurella pseudotuberculosis; details: origin C-G, medium NA
Proteus mirabilis = Proteus mirabilis ATCC 14153, medium M-H
Salmonella enteritidis = details: origin A, medium NA
Salmonella typhimurium = Salmonella typhimurium NCTC 5710, medium NA
Serratia marcescens = Serratia marcescens ATCC 14756, medium M-H
Shigella sonnei = Shigella sonnei NCTC 7240, medium NA
Vibrio eltor = Vibrio eltor NCTC 8457, medium NA
Aspergillus fumigatus = Aspergillus fumigatus ATCC 9197, medium SMA
Candida paracrusei = details: origin A, medium SMA
Candida parapsylosis = details: origin A, medium SMA
Candida stellatoidae = details: origin A, medium SMA
Candida utilis = details: origin A, medium SMA
Keratinomyces ajelloi = details: origin A, medium SMA
Pityrosporum ovalae = Pityrosporum ovalae ATCC 14521, medium M

For `Oc1cc(Cl)ccc1Oc1ccc(Cl)cc1Cl` [IRGAGUARD B 1000, 2,4,4′-trichloro-2′-hydroxydiphenyl ether], the Microbiostatic effect (Actinomyces israelii) is given as 1.0 ppm, the Microbiostatic effect (Actinomyces naeslundii) is given as 1.0 ppm and the Microbiostatic effect (Clostridium botulinum) is given as 3.0 ppm. The Microbiostatic effect (Clostridium difficile) was 5.0 ppm, the Microbiostatic effect [1] was 3.0 ppm and the Microbiostatic effect (Enterococcus faecium; Enterococcus faecium ATCC 10541, medium BHI-A) was 3.0 ppm. The Microbiostatic effect (Enterococcus faecium; Enterococcus faedium ATCC 6057, medium M-H) was 4.0 ppm, the Microbiostatic effect (Enterococcus faecium; Enterococcus faedium NCTC 8619, medium BHI-A) was 10.0 ppm and the Microbiostatic effect [2] was 33.0 ppm. For the same molecule, the Microbiostatic effect (Lactobacillus rhamnosus) was 33.0 ppm, the Microbiostatic effect (Mycobacterium phlei) was 0.3 ppm and the Microbiostatic effect (Mycobacterium smegmatis) was 1.0 ppm. For the same molecule, the Microbiostatic effect (Nocardia asteroides) was 3.0 ppm, the Microbiostatic effect (Sarcina lutee) was 3.0 ppm and the Microbiostatic effect (Streptococcus coelicolor) was 1.0 ppm. The Microbiostatic effect (Aerobacter arogenes) was 1.0 ppm, the Microbiostatic effect (Alcaligenes faecalis) was >100 ppm and the Microbiostatic effect (Bacteroides fragilis) was 2.0 ppm. For the same molecule, the Microbiostatic effect (Brucella abortus) was 0.1 ppm, the Microbiostatic effect (Brucella intermedia) was 0.1 ppm and the Microbiostatic effect (Enterobacter cloacae) was 0.5 ppm. For the same molecule, the Microbiostatic effect (Escherichia coli; Escheria coli ATCC 8196, medium M-H) was 0.02 ppm, the Microbiostatic effect (Escherichia coli; Escherichia coli ATCC 4388, medium M-H, Serotype 0157) was 0.1 ppm and the Microbiostatic effect (Escherichia coli; Escherichia coli ATCC 9661, medium NA) was 0.3 ppm. The Microbiostatic effect (Escherichia coli; Escherichia coli ATCC 10536, medium BHI) was 0.5 ppm, the Microbiostatic effect (Escherichia coli; Escherichia coli ATCC 11229, medium M-H) was 0.5 ppm and the Microbiostatic effect (Escherichia coli; Escherichia coli ATCC 25922, medium M-H) was 0.25 ppm. For the same molecule, the Microbiostatic effect (Escherichia coli; Escherichia coli ATCC 35150, medium M-H, Serotype 0157) was 0.2 ppm, the Microbiostatic effect (Escherichia coli; Escherichia coli ATCC 43889, medium M-H, Serotype 0157) was 0.2 ppm and the Microbiostatic effect (Escherichia coli; Escherichia coli ATCC 43890, medium M-H, Serotype 0157) was 0.2 ppm. The Microbiostatic effect (Escherichia coli; Escherichia coli NCTC 9663, medium NA) was 0.3 ppm, the Microbiostatic effect (Escherichia coli; Escherichia coli NCTC 11186, medium M-H, Tobramicin resistant) was 0.5 ppm and the Microbiostatic effect (Klebsiella edwardsii) was 0.3 ppm. For the same molecule, the Microbiostatic effect (Klebsiella pneumoniae; Klebsiella pneumoniae ATCC 4352, medium NA) was 0.3 ppm, the Microbiostatic effect (Klebsiella pneumoniae; Klebsiella pneumoniae ATCC 10031, medium M-H) was 0.125 ppm and the Microbiostatic effect (Loefferella mallei) was 0.3 ppm. For the same molecule, the Microbiostatic effect (Moraxella glucidolytica) was 0.3 ppm, the Microbiostatic effect [3] was 10.0 ppm and the Microbiostatic effect (Proteus mirabilis) was 0.5 ppm. The Microbiostatic effect (Salmonella enteritidis) was 0.1 ppm, the Microbiostatic effect (Salmonella typhimurium) was 0.3 ppm and the Microbiostatic effect (Salmonella typhi; Salmonella typhi NCTC 786, medium NA) was 0.3 ppm. The Microbiostatic effect (Salmonella typhi; Salmonella typhi NCTC 8384, medium NA) was 0.3 ppm, the Microbiostatic effect (Serratia marcescens) was >512 ppm and the Microbiostatic effect (Shigella sonnei) was 0.1 ppm. The Microbiostatic effect (Vibrio eltor) was 10.0 ppm, the Microbiostatic effect (Aspergillus fumigatus) was 10 ppm and the Microbiostatic effect (Candida paracrusei) was 4 ppm. The Microbiostatic effect (Candida parapsylosis) was 30 ppm, the Microbiostatic effect (Candida stellatoidae) was 10 ppm and the Microbiostatic effect (Candida tropicalis; Candida tropicalis DSM 1346, medium M-H) was 10 ppm. The Microbiostatic effect (Candida tropicalis; Candida tropicalis, origin A, medium SMA) was 10 ppm, the Microbiostatic effect (Candida utilis) was 33 ppm and the Microbiostatic effect (Keratinomyces ajelloi) was 10 ppm. The Microbiostatic effect (Pityrosporum ovalae) was >1000 ppm.
